Experimental data as given in patent US20030044413A1, “Methods of limiting apoptosis of cells” (Regents of the University of Minnesota, priority 1998, published 2003).

Experiments:
[1] = system: Hep G2 cells; experiment: FACS analysis of ΔΨm and ROS, Hep G2 cells; type: cell-based
Description: A ΔΨm and ROS measurement. ΔΨm and ROS production were measured by FACScan (Becton Dickinson) analysis. Freshly isolated rat hepatocytes were cultured for 3 h as described above and then incubated with William's E medium supplemented with either 100 μM DCA, 100 μM UDCA, equal molar amounts of both, or no bile acid (control), for 6 h. Rat hepatocytes were also cultured with either 1% ethanol, 100 μM UDCA, ethanol+UDCA, or no addition (control) for 4 h. HuH-7 cells, Hep G2 cells, and human osteogenic sarcoma Saos-2 cells were incubated with TGF-β1, anti-Fas antibody or okadaic acid, respectively, for 48 h under the same conditions as outlined above. For combination studies, cells were pretreated with UDCA or hyodeoxycholic acid for 60 min prior to addition of DCA, ethanol, TGF-β1, anti-Fas antibody or okadaic acid. Aliquots of 1.0×10^6 cells were incubated for 15 min at 37° C. with 50 nM 3,3′-dihexyloxacarbocyanine iodide [DiOC6(3)], 2 μM dihydroethidium (HE), or 5 μM 2′,7′-dichlorofluorescin diacetate (H2DCFDA; Molecular Probes, Inc. Eugene, Oreg.) and analyzed by cytofluorometry (Cathcart et al., Anal. Biochem., 134, 111-116 (1983); Zamzami et al., J. Exp. Med., 181, 1661-1672 (1 995); Carter et al., J. Leukocyte Biol., 55, 253-258 (1994)).
Rat primary hepatocytes were incubated with 100 μM DCA and 1% ETOH for 6 h and 4 h, respectively; HuH-7 cells with 1 nM TGF-β1 for 48 h; Hep G2 cells with 0.5 μg/ml anti-Fas antibody (CH-11) for 48 h, and Saos-2 cells with 50 nM okadaic acid (OA) for 48 h. In each combination group, cells were pretreated with 100 μM UDCA alone for 60 min prior to addition of the inducer. Aliquots of 1.0×10^6 cells were incubated for 15 min at 37° C. with 5 μM 2′,7′-dichlorofluorescin diacetate (H2DCFDA) and analyzed by cytofluorometry.

[2] = system: hepatocytes, HuH-7, Hep G2 and Saos-2 cells; experiment: Coadministration of UDCA with each apoptosis-inducing agent, all cell types; type: cell-based
Description: Incubation of cells with bile acids. […] The medium was gently removed at the indicated time points and scored for nonviable cells by trypan blue dye exclusion. The attached cells were fixed for morphologic assessment of apoptotic changes. […] HuH-7 cells were incubated with Dulbecco's medium supplemented with either 1 nM TGF-β1 (R & D Systems, Minneapolis, Minn.), 100 μM UDCA, TGF-β1+UDCA, or no addition (control) for 24 h, 48 h, and 72 h. Hep G2 cells were incubated with Dulbecco's medium supplemented with either 0.5 μg/ml of anti-Fas antibody CH-11 (Upstate Biotechnology, Inc., Lake Placid, N.Y.), 100 μM UDCA, CH-11+UDCA, or no addition for 48 h. […] Morphological evaluation of apoptosis. Morphology was performed as described previously (Oberhammer et al., Proc. Natl. Acad. Sci. USA 89, 5408-5412 (1992)). […] Fluorescence was visualized with a Zeiss standard fluorescence microscope (Carl Zeiss, Inc., Thornwood, N.Y.). Photographs were taken with Kodak Ektar-1000 film (Eastman Kodak Co.). Stained nuclei were scored by blind analysis and categorized according to the condensation and staining characteristics of chromatin. Normal nuclei were identified as noncondensed chromatin dispersed over the entire nucleus. Apoptotic nuclei were identified by condensed chromatin, contiguous to the nuclear membrane, as well as nuclear fragmentation of condensed chromatin.

[3] = system: primary rat hepatocytes; experiment: Ethanol-induced apoptosis, Hoechst staining, primary rat hepatocytes; type: cell-based
Description: Incubation of cells with ethanol, TGF-β1, anti-Fas antibody or okadaic acid. Freshly isolated rat hepatocytes were cultured for 3 h as described above and then incubated with William's E medium supplemented with either 0.5% ethanol, 50 μM UDCA, ethanol plus UDCA, or no addition (control) for 2 h and 4 h. HuH-7 cells were incubated with Dulbecco's medium supplemented with either 1 nM TGF-β1 (R & D Systems, Minneapolis, Minn.), 100 μM UDCA, TGF-β1+UDCA, or no addition (control) for 24 h, 48 h, and 72 h. Hep G2 cells were incubated with Dulbecco's medium supplemented with either 0.5 μg/ml of anti-Fas antibody CH-11 (Upstate Biotechnology, Inc., Lake Placid, N.Y.), 100 μM UDCA, CH-11+UDCA, or no addition for 48 h. Both HuH-7 cells and human osteogenic sarcoma Saos-2 cells were cultured in Dulbecco's medium supplemented with either 50 nM okadaic acid (Boehringer Mannheim Biochemicals, Inc, Indianapolis, Ind.), 100 μM UDCA, okadaic acid+UDCA, or no addition for 48 h. In all the combination groups, cells were pretreated with UDCA alone for 60 min prior to addition of ethanol, TGF-β1, anti-Fas antibody or okadaic acid.
Morphological evaluation of apoptosis. Morphology was performed as described previously (Oberhammer et al., Proc. Natl. Acad. Sci. USA 89, 5408-5412 (1992)). Briefly, after fixation (with 4% formaldehyde in PBS, pH 7.4, for 10 min at room temperature), the cells were incubated with Hoechst dye 33258 (Sigma Chemical Co.) at 5 μg/ml in PBS for 5 min, washed with PBS and mounted with PBS:glycerol (3:1, v/v). Fluorescence was visualized with a Zeiss standard fluorescence microscope (Carl Zeiss, Inc., Thornwood, N.Y.). Photographs were taken with Kodak Ektar-1000 film (Eastman Kodak Co.). Stained nuclei were scored by blind analysis and categorized according to the condensation and staining characteristics of chromatin. Normal nuclei were identified as noncondensed chromatin dispersed over the entire nucleus. Apoptotic nuclei were identified by condensed chromatin, contiguous to the nuclear membrane, as well as nuclear fragmentation of condensed chromatin. Three fields per dish of approximately 500 nuclei were counted; mean values are expressed as the percent of apoptotic nuclei.

[4] = system: astrocytes; experiment: Unconjugated bilirubin-induced apoptosis in astrocytes; type: cell-based, rat; settings: coincubation of UCB with UDCA
[5] = inducer CH-11, Hep G2, inhibition by UDCA

Structure (SMILES): C[C@H](CCC(=O)O)[C@H]1CC[C@H]2[C@@H]3[C@@H](O)C[C@@H]4C[C@H](O)CC[C@]4(C)[C@H]3CC[C@]12C [UDCA, ursodeoxycholic acid]
- Peroxides Production (%) Inducer + UDCA ([1]; 0.5 μg/ml CH-11 48 h, 100 μM UDCA pretreatment 60 min): 6.2 ± 1.3 %
- inhibition at 100 µM ([1]; Homo sapiens, HepG2, inducer CH-11, Hep G2, 100 μM UDCA, read-out: % Inhibition of peroxides production): 52.2 ± 14.9%
- Inhibition % Superoxide Anion [1, 5]: 55.1 ± 10.8 %
- Inhibition % _Ψm [1, 5]: 63.1 ± 11.9%
- inhibition of apoptotic changes [2]: 50-100%
- cell viability ([3]; 0.5% ethanol + 50 μM UDCA): 79.5±7.9%
- Inhibition % Apoptosis ([3]; inducer ETOH, hepatocytes, inhibition by UDCA): 75.9 ± 13.8%
- inhibition of apoptosis [4]: over 50%
